Earlier results on 1 compound are cited in patent publication US11351152B2, “Method and composition for treating seizure disorders” (India Globalization Capital, Inc., priority 2016, dated 2022).

One data set relates to epileptic patients. Conditions: 200-300 mg of cannabidiol per day in combination with standard antiepileptic drugs, 12 epileptic patients.
In the next data set the test system is single patient. Conditions: 900-1200 mg of cannabidiol a day for 10 months.
For a further data set, the system named is patients. To be noted: 200-300 mg of cannabidiol in combination with regular medication.

On to `C=C(C)[C@@H]1CCC(C)=C[C@H]1c1c(O)cc(CCCCC)cc1O` [cannabidiol], for which the seizure frequency result in the data set with epileptic patients is listed as “no significant improvement in seizure frequency”. The frequency of seizures result with single patient is listed as “markedly reduced the frequency of seizures”. In the data set with patients, the improvement versus placebo result was “showed improvement over those that received a placebo” and the unwanted side effect entry is “Mild sedation”.
